Where only a bound is given, the exact number is not on record here.

The target in one test is T1, Human ATX protein (Homo sapiens, UniProt Q13822).
T1 construct: made in house
Nature of the test: ATX biochemical FRET assay with FS-3 substrate. The settings on record: FS-3 2 μM, ATX 1.0 μg/mL, binned table, read-out: IC50 (μm). The text has this:
ATX (Autotaxin) is a 125 KDa glycoprotein with lysophospholipase D (LPLD) activity that generates the bioactive lipid lysophosphatidic acid (LPA) from lysophosphatidylcholine (LPC). The ATX biochemical assay utilizes a FRET (fluorescence resonance energy transfer) technology platform. The fluorescence signal of FRET substrate FS-3 is quenched due to intra-molecular FRET of a fluorophore to a non-fluorescing quencher (Ferguson, C. G., et al., Org. Lett. 2006 May 11; 8(10): 2023-2026, which is incorporated by reference in its entirety). ATX catalyzes the hydrolysis of the substrate which separates the dabsyl quencher from the fluorescein reporter, which becomes fluorescent. The reaction is monitored by a SpectraMax M5 (Molecular Devices, Sunnyvale, Calif.) with at excitation wavelength 485 nm and emission wavelength 535 nm.
2×ATX assay buffer: 100 mM Tris, 280 mM NaCl, 10 mM KCl, 2 mM CaCl2, 2 mM MgCl2, pH 7.4.
Human ATX protein: expressed and purified in house. Stored at −80° C.
Substrate FS-3 (Echelon, L-2000): 100 μg in 77.74 μL H2O (1 mM stock), stored at −20° C.
Compound dilution—All compounds were provided at 10 mM in 100% DMSO. In the first well, 2 μL of 10 mM compound was added to 78 μL of DMSO (1:40 dilution). In subsequent wells 3-fold dilution (total 10 dilutions) were performed.
1×ATX assay buffer was made up with a final concentration of 1 mg/mL fatty acid free-BSA using 2×ATX assay buffer, 10 mg/ml fatty acid free-BSA and ddH2O.
ATX protein was diluted with 1×ATX assay buffer to a concentration of 1.32 μg/mL (1.32×). 38 μL was added per well to the assay plate. The final concentration of ATX in the reaction as 1.0 μg/mL.
2 μL per well of compounds was transferred to provide the desired concentration. The plate was centrifuged, then incubated at room temperature for 30 minutes on the shaker.
FS-3 was diluted with 1×ATX assay buffer to a concentration of FS-3 of 10 μM (5×). Then, 10 μL was added per well to the assay plate. The final concentration of FS-3 in the reaction was 2 μM. The plate was centrifuged. The plate was kept shaking at room temperature for 2 hours. Because FS-3 substrate is light sensitive, plates were kept covered and protected from light.
Fluorescence was measured using SpectraMax M5 (excitation at 485 nm/emission at 538 nm, top read).
Broadly, the IC50 is the concentration that inhibits the measured activity by half. In the case of `C[C@H]1CC[C@@H](Oc2ccc3c(CN4CCC(C(=O)O)CC4)cccc3c2C(F)(F)F)CC1` [Example 1, 1-((6-((cis-4-methylcyclohexyl)oxy)-5-(trifluoromethyl)naphthalen-1-yl)methyl)piperidine-4-carboxylic acid], the IC50 was in the range of 0.5 to 5 µM.

As for `C[C@H]1CC[C@@H](Oc2ccc3c(CN4C5CCC4CC(C(=O)O)C5)cccc3c2C(F)(F)F)CC1` (stereo partly drawn) [Example 2, 8-((6-((cis-4-methylcyclohexyl)oxy)-5-(trifluoromethyl)naphthalen-1-yl)methyl)-8-azabicyclo[3.2.1]octane-3-carboxylic acid], the IC50 fell in the range of 0.5 to 5 µM.

For the molecule `C[C@H]1CC[C@@H](Oc2ccc3c(CN4C5CCCC4CC(C(=O)O)C5)cccc3c2C(F)(F)F)CC1` (stereo partly drawn) [Example 3, 9-((6-((cis-4-methylcyclohexyl)oxy)-5-(trifluoromethyl)naphthalen-1-yl)methyl)-9-azabicyclo[3.3.1]nonane-3-carboxylic acid], the half-inhibitory concentration (IC50) is 0.5 to 5 µM.

For `C[C@H]1CC[C@@H](Oc2ccc3c(CN4CCC[C@H](CC(=O)O)C4)cccc3c2C(F)(F)F)CC1` [Example 4, 2-((R)-1-((6-((cis-4-methylcyclohexyl)oxy)-5-(trifluoromethyl)naphthalen-1-yl)methyl)piperidin-3-yl)acetic acid], the IC50 is below 0.5 µM.

On to `C[C@H]1CC[C@@H](Oc2ccc3c(CNC4(C(=O)O)CCCCC4)cccc3c2C(F)(F)F)CC1` [Example 5, 1-(((6-((cis-4-methylcyclohexyl)oxy)-5-(trifluoromethyl)naphthalen-1-yl)methyl)amino)cyclohexanecarboxylic acid], for which the IC50 was above 5 µM.

For the molecule `C[C@H]1CC[C@@H](Oc2ccc3c(CNCC(=O)O)cccc3c2C(F)(F)F)CC1` [Example 6, 2-(((6-((cis-4-methylcyclohexyl)oxy)-5-(trifluoromethyl)naphthalen-1-yl)methyl)amino)acetic acid], the half-inhibitory concentration (IC50) was in the range of 0.5 to 5 µM.

For the molecule `C[C@H]1CC[C@@H](Oc2ccc3c(CNCCC(=O)O)cccc3c2C(F)(F)F)CC1` [Example 7, 3-(((6-((cis-4-methylcyclohexyl)oxy)-5-(trifluoromethyl)naphthalen-1-yl)methyl)amino)propanoic acid], the IC50 was below 0.5 µM.

Take `C[C@H]1CC[C@@H](Oc2ccc3c(CNCCCC(=O)O)cccc3c2C(F)(F)F)CC1` [Example 8, 4-(((6-((cis-4-methylcyclohexyl)oxy)-5-(trifluoromethyl)naphthalen-1-yl)methyl)amino)butanoic acid]: the IC50 was below 0.5 µM.

As for `C[C@H]1CC[C@@H](Oc2ccc3c(CNCCCCC(=O)O)cccc3c2C(F)(F)F)CC1` [Example 9, 5-(((6-((cis-4-methylcyclohexyl)oxy)-5-(trifluoromethyl)naphthalen-1-yl)methyl)amino)pentanoic acid], the IC50 was 0.5 to 5 µM.

Take `C[C@H]1CC[C@@H](Oc2ccc3c(CNCCCCCC(=O)O)cccc3c2C(F)(F)F)CC1` [Example 10, 6-(((6-((cis-4-methylcyclohexyl)oxy)-5-(trifluoromethyl)naphthalen-1-yl)methyl)amino)hexanoic acid]: the IC50 was below 0.5 µM.

Take `O=C(O)C1CCN(Cc2cccc3c(C(F)(F)F)c(O[C@H]4CC[C@@H](C(F)(F)F)CC4)ccc23)CC1` [Example 11, 1-((5-(trifluoromethyl)-6-((cis-4-(trifluoromethyl)cyclohexyl)oxy)naphthalen-1-yl)methyl)piperidine-4-carboxylic acid]: the IC50 lay within 0.5 to 5 µM.

Take `O=C(O)C1CC2CCCC(C1)N2Cc1cccc2c(C(F)(F)F)c(O[C@H]3CC[C@@H](C(F)(F)F)CC3)ccc12` (stereo partly drawn) [Example 13, 9-((5-(trifluoromethyl)-6-((cis-4-(trifluoromethyl)cyclohexyl)oxy)naphthalen-1-yl)methyl)-9-azabicyclo[3.3.1]nonane-3-carboxylic acid]: the IC50 lay in the range of 0.5 to 5 µM.

For the molecule `O=C(O)C[C@H]1CCCN(Cc2cccc3c(C(F)(F)F)c(O[C@H]4CC[C@@H](C(F)(F)F)CC4)ccc23)C1` [Example 14, 2-((R)-1-((5-(trifluoromethyl)-6-((cis-4-(trifluoromethyl)cyclohexyl)oxy)naphthalen-1-yl)methyl)piperidin-3-yl)acetic acid], the IC50 is below 0.5 µM.

`O=C(O)C1(NCc2cccc3c(C(F)(F)F)c(O[C@H]4CC[C@@H](C(F)(F)F)CC4)ccc23)CCCCC1` [Example 15, 1-(((5-(trifluoromethyl)-6-((cis-4-(trifluoromethyl)cyclohexyl)oxy)naphthalen-1-yl)methyl)amino)cyclohexanecarboxylic acid]: the IC50 was above 5 µM.

Consider `O=C(O)CNCc1cccc2c(C(F)(F)F)c(O[C@H]3CC[C@@H](C(F)(F)F)CC3)ccc12` [Example 16, 2-(((5-(trifluoromethyl)-6-((cis-4-(trifluoromethyl)cyclohexyl)oxy)naphthalen-1-yl)methyl)amino)acetic acid], for which the IC50 lay in the range of 0.5 to 5 µM.

In the case of `O=C(O)CCNCc1cccc2c(C(F)(F)F)c(O[C@H]3CC[C@@H](C(F)(F)F)CC3)ccc12` [Example 17, 3-(((5-(trifluoromethyl)-6-((cis-4-(trifluoromethyl)cyclohexyl)oxy)naphthalen-1-yl)methyl)amino)propanoic acid], the IC50 lay within 0.5 to 5 µM.

For `O=C(O)CCCNCc1cccc2c(C(F)(F)F)c(O[C@H]3CC[C@@H](C(F)(F)F)CC3)ccc12` [Example 18, 4-(((5-(trifluoromethyl)-6-((cis-4-(trifluoromethyl)cyclohexyl)oxy)naphthalen-1-yl)methyl)amino)butanoic acid], the 50% inhibitory concentration (IC50) is below 0.5 µM.

As for `O=C(O)CCCCNCc1cccc2c(C(F)(F)F)c(O[C@H]3CC[C@@H](C(F)(F)F)CC3)ccc12` [Example 19, 5-(((5-(trifluoromethyl)-6-((cis-4-(trifluoromethyl)cyclohexyl)oxy)naphthalen-1-yl)methyl)amino)pentanoic acid], the IC50 was in the range of 0.5 to 5 µM.

Consider `O=C(O)CCCCCNCc1cccc2c(C(F)(F)F)c(O[C@H]3CC[C@@H](C(F)(F)F)CC3)ccc12` [Example 20, 6-(((5-(trifluoromethyl)-6-((cis-4-(trifluoromethyl)cyclohexyl)oxy)naphthalen-1-yl)methyl)amino)hexanoic acid], for which the IC50 is below 0.5 µM.

Turning to `C[C@H]1CC[C@@H](Oc2ccc3cccc(CN4CCC(C(=O)O)CC4)c3c2C(F)(F)F)CC1` [Example 21, 1-((7-((cis-4-methylcyclohexyl)oxy)-8-(trifluoromethyl)naphthalen-1-yl)methyl)piperidine-4-carboxylic acid], the IC50 is 0.5 to 5 µM.

As for `C[C@H]1CC[C@@H](Oc2ccc3cccc(CN4C5CCC4CC(C(=O)O)C5)c3c2C(F)(F)F)CC1` (stereo partly drawn) [Example 22, 8-((7-((cis-4-methylcyclohexyl)oxy)-8-(trifluoromethyl)naphthalen-1-yl)methyl)-8-azabicyclo[3.2.1]octane-3-carboxylic acid], the IC50 was below 0.5 µM.

For `C[C@H]1CC[C@@H](Oc2ccc3cccc(CN4C5CCCC4CC(C(=O)O)C5)c3c2C(F)(F)F)CC1` (stereo partly drawn) [Example 23, 9-((7-((cis-4-methylcyclohexyl)oxy)-8-(trifluoromethyl)naphthalen-1-yl)methyl)-9-azabicyclo[3.3.1]nonane-3-carboxylic acid], the IC50 was 0.5 to 5 µM.

On to `C[C@H]1CC[C@@H](Oc2ccc3cccc(CN4CCC[C@H](CC(=O)O)C4)c3c2C(F)(F)F)CC1` [Example 24, 2-((R)-1-((7-((cis-4-methylcyclohexyl)oxy)-8-(trifluoromethyl)naphthalen-1-yl)methyl)piperidin-3-yl)acetic acid], for which the IC50 lay in the range of 0.5 to 5 µM.

As for `O=C(O)C1CCN(Cc2cccc3ccc(O[C@H]4CC[C@@H](C(F)(F)F)CC4)c(C(F)(F)F)c23)CC1` [Example 25, 1-((8-(trifluoromethyl)-7-((cis-4-(trifluoromethyl)cyclohexyl)oxy)naphthalen-1-yl)methyl)piperidine-4-carboxylic acid], the IC50 was in the range of 0.5 to 5 µM.

Regarding `O=C(O)C1CC2CCC(C1)N2Cc1cccc2ccc(O[C@H]3CC[C@@H](C(F)(F)F)CC3)c(C(F)(F)F)c12` (stereo partly drawn) [Example 26, 8-((8-(trifluoromethyl)-7-((cis-4-(trifluoromethyl)cyclohexyl)oxy)naphthalen-1-yl)methyl)-8-azabicyclo[3.2.1]octane-3-carboxylic acid], the half-maximal inhibitory concentration (IC50) was 0.5 to 5 µM.

Staying with this test, now noted: FS-3 2 μM, ATX 1.0 μg/mL, read-out: ATX IC50.
Take `C[C@H]1CC[C@@H](Oc2ccc3c(CN4CCC[C@H](CC(=O)O)C4)cccc3c2C(F)(F)F)CC1` [Example 4, 2-((R)-1-((6-((cis-4-methylcyclohexyl)oxy)-5-(trifluoromethyl)naphthalen-1-yl)methyl)piperidin-3-yl)acetic acid]: the IC50 was at most 0.25 µM.

Regarding `C[C@H]1CC[C@@H](Oc2ccc3c(CNCCCCCC(=O)O)cccc3c2C(F)(F)F)CC1` [Example 10, 6-(((6-((cis-4-methylcyclohexyl)oxy)-5-(trifluoromethyl)naphthalen-1-yl)methyl)amino)hexanoic acid], the IC50 was at most 0.25 µM.

Turning to `O=C(O)C[C@H]1CCCN(Cc2cccc3c(C(F)(F)F)c(O[C@H]4CC[C@@H](C(F)(F)F)CC4)ccc23)C1` [Example 14, 2-((R)-1-((5-(trifluoromethyl)-6-((cis-4-(trifluoromethyl)cyclohexyl)oxy)naphthalen-1-yl)methyl)piperidin-3-yl)acetic acid], the IC50 is at most 0.25 µM.

On to `O=C(O)CCCCCNCc1cccc2c(C(F)(F)F)c(O[C@H]3CC[C@@H](C(F)(F)F)CC3)ccc12` [Example 20, 6-(((5-(trifluoromethyl)-6-((cis-4-(trifluoromethyl)cyclohexyl)oxy)naphthalen-1-yl)methyl)amino)hexanoic acid], for which the IC50 was at most 0.25 µM.

As for `C[C@H]1CC[C@@H](Oc2ccc3cccc(CN4C5CCC4CC(C(=O)O)C5)c3c2C(F)(F)F)CC1` (stereo partly drawn) [Example 22, 8-((7-((cis-4-methylcyclohexyl)oxy)-8-(trifluoromethyl)naphthalen-1-yl)methyl)-8-azabicyclo[3.2.1]octane-3-carboxylic acid], the IC50 is at most 0.25 µM.

These data come from patent US9499485B2, “Compounds that are S1P modulating agents and/or ATX modulating agents” (BIOGEN MA INC., priority 2012, dated 2016).
